We go through seven molecules from patent US20100226922A1, “SPECIFIC PROTEASE INHIBITORS AND THEIR USE IN CANCER THERAPY” (priority 2006, published 2010).

The test system of one experiment is FaDu carcinoma cells. In words: Proliferation (cell numbers) of FaDu carcinoma cells. In kind it is cell-based, human. As to the method: We further investigated the significance of PS activity on EpCAM-mediated growth transformation of two cell types. Murine NIH3T3 transfectants (which were grown and transfected as described in Example 1) that ectopically express EpCAM, and FaDu carcinoma cells that naturally express EpCAM were treated with the DAPT over 4 days. […] Noteworthy, besides its capacity to rescue cells from DAPT-mediated growth inhibition, the expression of EpIC-YFP did even further increase proliferation of EpCAM-expressing FaDu carcinoma cells. Also, siRNA-mediated TACE reduction of proliferation of FaDu cells was tested. […] Modest effects may be explained by the comparatively low transfection efficiency of this cell line (FIG. 3A).

Experiment [1] deals with EpCAM-negative NIH3T3 control cells. The experiment is described as follows: Proliferation of EpCAM-negative NIH3T3 control cells. In kind it is cell-based, murine. The settings on record: treatment with DAPT. The method, then:
(§1) We further investigated the significance of PS activity on EpCAM-mediated growth transformation of two cell types. Murine NIH3T3 transfectants (which were grown and transfected as described in Example 1) that ectopically express EpCAM, and FaDu carcinoma cells that naturally express EpCAM were treated with the DAPT over 4 days. […] Noteworthy, besides its capacity to rescue cells from DAPT-mediated growth inhibition, the expression of EpIC-YFP did even further increase proliferation of EpCAM-expressing FaDu carcinoma cells.

The test system of experiment [2] is NIH3T3 transfectants that ectopically express EpCAM. The experiment is described as follows: EpCAM-mediated growth transformation (cell numbers), NIH3T3 transfectants ectopically expressing EpCAM. The format is cell-based, murine. The method, then: as §1
The subject of experiment [3] is EpEX shedding in FaDu cells. The experiment is described as follows: EpEX shedding by FaDu cells expressing endogenous EpCAM. The settings on record: treated with TAPI-2. The format is cell-based, human. The method, then: The soluble ectodomain EpEX was detected in cell-free supernatants FaDu cells (Experiment was carried out as described for HEK293 cells).
(§2) Next, HEK293 cells were transiently transfected with EpCAM-YFP, treated with 40 μM TACE inhibitor TAPI-2 (Biomol, Germany) and EpIC formation monitored as described above for the inhibition of presenilin-2. […] Finally, the effect of TACE inhibition on the generation of the EpCAM ectodomain was assessed. HEK293-EpCAM cells were cultured two days in the presence or absence of TAPI-2 (40 μM) and cell-free conditioned supernatants were collected upon centrifugation (13,000 rpm, 10 min, 4° C.). Thereafter, immunoprecipitations were conducted with antibodies specific for EpEX as described above. […] In all cases, EpEX was devoid of the EpIC domain as it no longer reacted with the EpIC-specific antibody. Ectodomain shedding may thus be a basic requirement for the cleavage of EpIC, as is the case for certain other receptors (Medina and Dotti, 2003, Cell Signal 15: 829-841).

Experiment [4] has as its system EpCAM-YFP cleavage in HEK293 cells. The experiment is described as follows: EpIC formation (EpCAM cleavage) by immunoblot in HEK293 cells transiently transfected with EpCAM-YFP. The format is cell-based, human. The note with it: for EpIC cleavage / release of EpIC-YFP from EpCAM-YFP: single cells incubated with recombinant EpEX, monitored over time.
From the text: In the beginning of the study nothing was known about the molecular mechanisms underlying the signalling mechanisms of EpCAM. In order to test for potential EpCAM cleavage, full-length EpCAM was C-terminally fused to the yellow fluorescence protein to generate EpCAM-YFP. Similarly, a potential intracellular domain of EpCAM (EpIC), starting with serine^289, was fused to the YFP moiety to generate EpIC-YFP. For this purpose, EpCAM or EpIC cDNA sequences were cloned into peYFP-N1 (BD Biosciences, Heidelberg Germany). […] HEK293 cells are human embryonic kidney cells, which were cultured in standard DMEM containing 10% fetal calf serum and passaged three times per week. Transfection was carried out with MATra reagent (IBA, Göttingen, Germany) in six-well plates (5×10^5 cells/well) according to the manufacturer's protocol. One microgram of plasmid DNA was transfected per sample for a time period of 24 h. For immunoblot analysis, 1×10^6 cells were lysed in 100 μl lysis buffer (TBS/1% triton and protease inhibitors). Lysates were pre-cleared upon centrifugation (13.000 rpm, 4° C., 10 min), separated upon SDS-PAGE, and transferred onto PVDF membranes (Millipore, Bedford, US). The expression of both proteins was assessed upon immunobloting with EpIC- (A20 or 1144, which are α-EpIC antibodies; Santa Cruz Biotech, USA and Epitomics, USA) and YFP-specific antibodies in combination with horseradish peroxidase (HRP)-conjugated secondary antibodies and the ECL reagent (Amersham Biosciences).
The interaction of EpCAM with PS-2 and TACE indicates an involvement of these proteases in the proteolytic processing of EpCAM. To confirm this, HEK293 cells were transiently transfected with EpCAM-YFP expression plasmid. Briefly, 5×10^5 cells were plated in 6-well plates and transiently transfected 24 h later with 1 μg plasmid DNA using the MATra transfection reagent (IBA, Göttingen, Germany—1 μl reagent per 1 μg DNA). Transiently transfected HEK293 cells were treated with 60 nM of the γ-secretase inhibitor Compound E (Alexis Biochemicals, Germany) over a time period of two days. Proteins were separated by SDS-PAGE (30 mA/gel, 10% polyacrylamid gel), transferred onto PVDF membranes (Millipore, Bedford, US). Cleavage of EpIC was assessed with an EpIC-specific antibody (1144, Epitomics, USA) in a time kinetic. Treatment of transfected cells with compound E led to the reduced formation of EpIC along with the accumulation of intermediate cleavage products of EpCAM with a molecular weight of 33-37 kDa (FIG. 2C). These intermediates most likely represent EpCAM molecules lacking the ectodomain but which were not cleaved at the intracellular site. […] Thus, inhibition of presenilins has an impact on EpCAM signaling capacity.
as §2, with “Ectodomain shedding may thus be a basic requirement for the cleavage of EpIC, as is the case for certain other receptors (Medina and Dotti, 2003, Cell Signal 15: 829-841).” left out

The test system of experiment [5] is EpCAM ectodomain (EpEX) shedding in HEK293-EpCAM cells. In words: EpCAM ectodomain shedding, immunoprecipitation from conditioned supernatant of HEK293-EpCAM cells. The note with it: TAPI-2 40 μM, two days, versus vehicle diluent. In kind it is cell-based, human. As to the method: In a next step, we assessed the existence of a shed ectodomain of EpCAM. Immunoprecipitation was performed with conditioned cell-free supernatants of HEK293-EpCAM and HEK293-control transfectants using antibodies specific for the extracellular (EpEC), i.e. HO.3 (an α-EpEC antibody; kind gift from Dr. Horst Lindhofer, TrionPharma, Munich, Germany) and intracellular (EpIC) domain of EpCAM (see above) essentially as described above. For a positive control, immunoprecipitation was performed in parallel with whole cell lysate of HEK293-EpCAM cells.
as §2, with “Ectodomain shedding may thus be a basic requirement for the cleavage of EpIC, as is the case for certain other receptors (Medina and Dotti, 2003, Cell Signal 15: 829-841).” left out

Experiment [6] has as its system TCF/Lef-responsive promoters in HEK293 cells. The format is cell-based, human.
Experiment [7] deals with EpCAM (epithelial cell adhesion molecule), full-length (human) (UniProt P16422). In words: cell-based or functional assay.
The test system of experiment [8] is endogenous EpCAM in FaDu cells. In words: EpIC retention in the plasma membrane of isolated FaDu cells treated with EpEX. The format is cell-based, human. As to the method:
In search for inducers of EpCAM signaling, we investigated the possibility that EpEX serves as a soluble ligand for EpCAM. EpCAM was described as a homophilic adhesion molecule, which can confer intra- and intercellular adhesion via two distinct, cystein-rich extracellular domains. […] HEK293 cells were plated as single cells, transfected with EpCAM-YFP expression vector, and incubated with recombinant EpEX. EpIC formation was then monitored over time by immunoblotting (see above). […] This observation was further corroborated in carcinoma cells with respect to the cleavage of endogenous EpCAM molecules. […] In the absence of EpEX in the culture medium, a mean of 74% of single cells retained EpIC in the plasma membrane, while only 39% of the cells did so following treatment with EpEX.

Experiment [9] deals with T1, EpCAM (epithelial cell adhesion molecule), full-length (human, UniProt P16422 24-314).
T1 sequence (looked up): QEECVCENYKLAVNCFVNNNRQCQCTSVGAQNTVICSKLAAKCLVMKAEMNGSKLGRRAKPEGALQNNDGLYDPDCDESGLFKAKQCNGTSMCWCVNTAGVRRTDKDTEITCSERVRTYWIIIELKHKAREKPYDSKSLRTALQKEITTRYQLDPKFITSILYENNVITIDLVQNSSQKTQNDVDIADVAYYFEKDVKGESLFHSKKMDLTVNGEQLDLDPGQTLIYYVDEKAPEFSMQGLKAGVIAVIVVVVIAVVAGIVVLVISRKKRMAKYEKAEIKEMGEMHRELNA
The experiment is described as follows: cell-based or functional assay.

The mark [10] stands for this setting: DAPT over 4 days, data not shown.
Setting [11] is: DAPT plus EpIC-YFP expression (rescue).

With `C[C@H](NC(=O)Cc1cc(F)cc(F)c1)C(=O)N[C@H](C(=O)OC(C)(C)C)c1ccccc1` [DAPT, N—[N-(3,5-difluorophenacetyl)-L-alanyl]-(S)-phenyl-glycine t-butyl ester], the “EpCAM-mediated growth transformation (cell numbers)” value (in the experiment with FaDu carcinoma cells (setting [10]); in [2] (setting [10])) was “substantially inhibited” in each case. Moreover, the “cell numbers under DAPT with expression of EpIC-YFP” value (in the experiment on FaDu carcinoma cells (setting [11]); in [2] (setting [11])) was “restored cell numbers to the level of untreated cells” throughout. Further, in experiment [1], the cell proliferation entry is reported as “remained unaffected”.

As to `CC(C)C[C@H](CC(=O)NO)C(=O)N[C@H](C(=O)N[C@@H](C)C(=O)NCCN)C(C)(C)C` [TAPI-2], in experiment [3], the EpEX shedding result is reported as “significant reduction of EpEX shedding”. For the same molecule, in [4] (40 μM TAPI-2), the EpIC cleavage result is on record as “substantial reduction of EpIC cleavage”, the c-Myc induction result is “decrease in c-Myc induction” and the “formation of EpCAM intermediates” value is given as “no effect whatsoever”. For the same molecule, in experiment [5], the “ectodomain shedding in the cell culture supernatant” value is “strong reduction of ectodomain shedding”.

Regarding `[Cl-].[Li+]` [lithium chloride], the “mean induction of TCF/Lef” value in [6] is 2.5 fold.

In experiment [7], “recombinant EpCAM extracellular domain EpEX (EpEXrec) (from UniProt P16422 24-265) (ligand)” registered a single FaDu cells retaining EpIC in the plasma membrane, following treatment with EpEX of 39% and a single FaDu cells retaining EpIC in the plasma membrane, in the absence of EpEX (control) of 74%.

B1: EpEXrec: recombinant EpCAM extracellular domain EpEX (protein)
chain: QEECVCENYKLAVNCFVNNNRQCQCTSVGAQNTVICSKLAAKCLVMKAEMNGSKLGRRAKPEGALQNNDGLYDPDCDESGLFKAKQCNGTSMCWCVNTAGVRRTDKDTEITCSERVRTYWIIIELKHKAREKPYDSKSLRTALQKEITTRYQLDPKFITSILYENNVITIDLVQNSSQKTQNDVDIADVAYYFEKDVKGESLFHSKKMDLTVNGEQLDLDPGQTLIYYVDEKAPEFSMQGLK
On to B1, for which the “EpIC cleavage / release of EpIC-YFP from EpCAM-YFP” value in [4] was “time-dependent induction of EpIC cleavage”. For the same molecule, in experiment [8] (after treatment with EpEX, 74% in the absence of EpEX), the “single cells that retained EpIC in the plasma membrane (mean)” value stood at 39%. The “EpIC immunoreactivity at the site of the plasma membrane” value in [8] (isolated FaDu cells treated with EpEX) was “significant loss”.

B2: heat-treated EpEX: heat-treated recombinant EpCAM ectodomain, used as inactive control (protein, UniProt P16422 24-265, looked up)
extracellular domain: B1 chain
modifications: extracellular domain heat-treated
As for B2, the “EpIC cleavage / release of EpIC-YFP from EpCAM-YFP” value in [4] is reported as “did not result in a release of EpIC-YFP”.

B3: four and a half LIM domain protein FHL2 (other, human, UniProt Q14192 1-279, looked up)
chain: MTERFDCHHCNESLFGKKYILREESPYCVVCFETLFANTCEECGKPIGCDCKDLSYKDRHWHEACFHCSQCRNSLVDKPFAAKEDQLLCTDCYSNEYSSKCQECKKTIMPGTRKMEYKGSSWHETCFICHRCQQPIGTKSFIPKDNQNFCVPCYEKQHAMQCVQCKKPITTGGVTYREQPWHKECFVCTACRKQLSGQRFTARDDFAYCLNCFCDLYAKKCAGCTNPISGLGGTKYISFEERQWHNDCFNCKKCSLSLVGRGFLTERDDILCPDCGKDI
On to B3, for which, in experiment [9], the “cell numbers at day five of treatment with EpCAM- or FHL2-specific siRNA against control siRNA” value stood at 2.5 fold lower.
